pIC50: −log10 of the molar value.
How the values were obtained:
endoglucanase = experiment: Post-feeding inhibition of endoglucanase activity in whole-body homogenates; assay type: in vivo, R. flavipes; conditions: after 24 days feeding, various concentrations; FIGS. 11A-11C
Protocol: Whole body homogenates were used for optimization and post-feeding inhibition studies. Here, 10-15 termite workers were homogenized in 1 to 1.5 ml ice-cold homogenization buffer with a Teflon-glass (Potter-Elvehjem) homogenizer powered by a motorized electric stirrer (Fisher Scientific). After homogenization, both gut region and whole-body preparations were centrifuged at 15,000× g and 4° C. for 15 min. The resulting supernatants from the different gut regions were used directly for subsequent enzyme assays. Supernatants from whole-body homogenates were passed through glass wool to remove excess lipids before proceeding with cellulase activity assays.
Cellulase activity assays were adapted from Han et al. in “Characterization of a bifunctional cellulase and its structural gene,” J. Biol. Chem. 270 (1995) 26012-26019, with optimization for a 96-well microplate format. The model substrates used to test for endoglucanase, exoglucanase and β-glucosidase activities were CMC (FIG. 1A), pNPC (FIG. 1B) and pNPG (FIG. 1C), respectively. The substrate concentration used for CMC was 0.5% (w/v), while pNPG and pNPC were used at 4 mM. All substrates were diluted in homogenization buffer. […] Color was allowed to develop on ice for 15 min before measuring absorbance at 540 nm relative to a glucose standard curve. […]

[1] = molecular target: T1, Cel7A cellobiohydrolase (exoglucanase) (Trichoderma reesei, UniProt P62694); conditions: non-competitive inhibition; Vonhoff et al.; read-out: I50; cited from earlier work
T1 sequence (P62694 18-513): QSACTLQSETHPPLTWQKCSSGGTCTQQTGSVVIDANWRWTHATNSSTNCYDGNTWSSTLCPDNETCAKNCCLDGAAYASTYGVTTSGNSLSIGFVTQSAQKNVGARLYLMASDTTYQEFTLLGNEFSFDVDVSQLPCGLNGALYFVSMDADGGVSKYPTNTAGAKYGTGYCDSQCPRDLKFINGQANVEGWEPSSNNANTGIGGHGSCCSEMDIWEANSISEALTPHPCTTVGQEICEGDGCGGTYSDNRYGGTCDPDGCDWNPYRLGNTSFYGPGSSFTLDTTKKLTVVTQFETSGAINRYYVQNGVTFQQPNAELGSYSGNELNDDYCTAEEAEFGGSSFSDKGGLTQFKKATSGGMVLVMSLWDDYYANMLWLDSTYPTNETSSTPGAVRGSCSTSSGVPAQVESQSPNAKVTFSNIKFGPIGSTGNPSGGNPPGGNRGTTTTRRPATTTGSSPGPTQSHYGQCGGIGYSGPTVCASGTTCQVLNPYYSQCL

[2] = molecular target: T2, 6A cellobiohydrolase (exoglucanase) (Trichoderma reesei, UniProt P07987); conditions: non-competitive inhibition; Vonhoff et al.; read-out: I50; cited from earlier work
T2 sequence (P07987 25-471): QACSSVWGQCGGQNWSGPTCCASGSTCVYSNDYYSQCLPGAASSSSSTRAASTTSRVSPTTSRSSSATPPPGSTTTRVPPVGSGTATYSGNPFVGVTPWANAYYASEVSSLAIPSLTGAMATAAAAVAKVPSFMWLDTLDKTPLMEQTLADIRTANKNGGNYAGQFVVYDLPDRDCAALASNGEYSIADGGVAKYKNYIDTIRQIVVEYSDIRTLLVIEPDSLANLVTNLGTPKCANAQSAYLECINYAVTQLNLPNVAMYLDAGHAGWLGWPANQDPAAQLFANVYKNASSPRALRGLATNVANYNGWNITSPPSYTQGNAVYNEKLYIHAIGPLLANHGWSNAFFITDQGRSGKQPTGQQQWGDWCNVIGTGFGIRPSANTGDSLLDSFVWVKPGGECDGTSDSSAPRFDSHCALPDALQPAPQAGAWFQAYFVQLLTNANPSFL

**Q.** For OC[C@@H]1[C@@H](O[C@@H]2O[C@H](CO)[C@@H](O)[C@H](O)[C@H]2O)[C@H](O)[C@@H](O)c2nccn21 [CBI, cellobioimidazole], which “endoglucanase activity after feeding, reduction relative to controls” value (endoglucanase) is on record?
**A.** significant

**Q.** And the pIC50 [1]?
**A.** 3.89

**Q.** What about the pIC50 [2] of the same molecule?
**A.** 6.00
